Measured values: patent US11529436B2, “Engineered three-dimensional skin tissues, arrays thereof, and methods of making the same” (Organovo, Inc., priority 2014, dated 2022)

How the values were obtained:
Format in all cases: cell-based, human
[1] = tested on: bioprinted full thickness skin tissue; experiment: Lactate dehydrogenase (LDH) activity in media of bioprinted skin tissue, skin irritation test
Text: Bio-ink was generated by a cellular mixture of 100% primary adult human dermal fibroblasts (HDFa) in 8% gelatin (NOVOGEL 2.0) at a concentration of 100 million cells per milliliter. The cell: gelatin ratio was altered to reduce the cellular density of the dermal sheet to better mimic dermal tissue in native skin. Three-dimensional bio-ink constructs were printed by continuous deposition using the NOVOGEN BIOPRINTER platform in a 4 mm×4 mm×0.5 mm base to create a dermal structure resembling a sheet. […] The transwell printing surface contained a polytetrafluoroethylene (PTFE) membrane coated with equimolar mixture of types I and III collagen (bovine) with pores 3 μm in size. Epidermal cell paste containing a mixture of 100% primary neonatal human epidermal keratinocytes (HEKn) was then printed on top of the dermal bio-ink. Cell paste was measured post print at 87.1% viable by trypan exclusion assay. Cell numbers in the deposited epidermal layer was estimated at 60,000 cells by cell counting on a Cell-O-Meter. Immediately following the print, constructs were placed at 4° C. for 10 minutes. Cold media was then added to the outer well of the transwell in a volume of 3 ml. The media used for subsequent growth and maintenance of the skin tissue was a 50:50 ratio of HDFa: HEKn media. The initial volume added was sufficient to submerge the structure. All subsequent media changes used warmed media (37° C.) added to the outer well of the transwell and not to the inner basket. Media was changed 48 hours later and reduced to a volume of 1.5 ml per well to bring the structure to an air-liquid interface (ALI). Media and subsequently changed 48 hours after that (day 4) at a volume of 1.5 ml. […] IL-1α production (R&D Systems) was analyzed in a colorimetric assays per manufacturer's protocol. Media was analyzed for lactate dehydrogenase as a marker for cytotoxicity. IL-1α production was assessed as a complementary endpoint to classic cytotoxicity testing to improve predictability of irritants. […] Viability was measured as fluorescence in the media by conversion of resazurin to resorufin. […]

[2] = tested on: bioprinted full thickness skin tissue; experiment: IL-1α production in media of bioprinted skin tissue (colorimetric assay), skin irritation test
Text: Bio-ink was generated by a cellular mixture of 100% primary adult human dermal fibroblasts (HDFa) in 8% gelatin (NOVOGEL 2.0) at a concentration of 100 million cells per milliliter. The cell: gelatin ratio was altered to reduce the cellular density of the dermal sheet to better mimic dermal tissue in native skin. Three-dimensional bio-ink constructs were printed by continuous deposition using the NOVOGEN BIOPRINTER platform in a 4 mm×4 mm×0.5 mm base to create a dermal structure resembling a sheet. […] The transwell printing surface contained a polytetrafluoroethylene (PTFE) membrane coated with equimolar mixture of types I and III collagen (bovine) with pores 3 μm in size. Epidermal cell paste containing a mixture of 100% primary neonatal human epidermal keratinocytes (HEKn) was then printed on top of the dermal bio-ink. Cell paste was measured post print at 87.1% viable by trypan exclusion assay. Cell numbers in the deposited epidermal layer was estimated at 60,000 cells by cell counting on a Cell-O-Meter. Immediately following the print, constructs were placed at 4° C. for 10 minutes. Cold media was then added to the outer well of the transwell in a volume of 3 ml. The media used for subsequent growth and maintenance of the skin tissue was a 50:50 ratio of HDFa: HEKn media. The initial volume added was sufficient to submerge the structure. All subsequent media changes used warmed media (37° C.) added to the outer well of the transwell and not to the inner basket. Media was changed 48 hours later and reduced to a volume of 1.5 ml per well to bring the structure to an air-liquid interface (ALI). Media and subsequently changed 48 hours after that (day 4) at a volume of 1.5 ml. On day 5, media was changed and further reduced to 1 ml per well and subsequently changed daily. On day 10, skin tissues were subject to a skin irritation test method using 1% TRITON X-100. 1% TRITON X-100 is a known irritant and reference chemical currently used in other 3D skin models. Methods were based on OECD guidelines 439 and 431 for applying human skin models to in vitro skin irritation or corrosion, respectively. On day 10, conditioned media was saved (designated time=0) and 1 ml of fresh media was added to the outer well of the transwell. The printed skin tissue was then treated with 20 μl of PBS as a negative control or with 20 μl of 1% TRITON X-100 as a positive control and known irritant. Test substances were pipetted manually to the apical surface of the tissue. TRITON X-100 was diluted to a 1% aqueous solution in deionized water and sterile filtered through a 20 micron filter before use. […] Media was saved (designated time=1 hour). Samples were then washed extensively by PBS rinsing. […] The media was then changed at 24 hours and at 48 hours post treatment. Total media collected included time points=−48, 0, 1, 24, and 48 hours. IL-1α production (R&D Systems) was analyzed in a colorimetric assays per manufacturer's protocol. Media was analyzed for lactate dehydrogenase as a marker for cytotoxicity. IL-1α production was assessed as a complementary endpoint to classic cytotoxicity testing to improve predictability of irritants. Keratinocytes normally produce and release inflammatory cytokine IL-1α in response to chemical or physical stress. […] Viability was measured as fluorescence in the media by conversion of resazurin to resorufin. […]

[3] = tested on: bioprinted full thickness skin tissue; experiment: Viability of bioprinted skin tissue by alamar blue assay, skin irritation test
Text: Bio-ink was generated by a cellular mixture of 100% primary adult human dermal fibroblasts (HDFa) in 8% gelatin (NOVOGEL 2.0) at a concentration of 100 million cells per milliliter. The cell: gelatin ratio was altered to reduce the cellular density of the dermal sheet to better mimic dermal tissue in native skin. Three-dimensional bio-ink constructs were printed by continuous deposition using the NOVOGEN BIOPRINTER platform in a 4 mm×4 mm×0.5 mm base to create a dermal structure resembling a sheet. […] The transwell printing surface contained a polytetrafluoroethylene (PTFE) membrane coated with equimolar mixture of types I and III collagen (bovine) with pores 3 μm in size. Epidermal cell paste containing a mixture of 100% primary neonatal human epidermal keratinocytes (HEKn) was then printed on top of the dermal bio-ink. Cell paste was measured post print at 87.1% viable by trypan exclusion assay. Cell numbers in the deposited epidermal layer was estimated at 60,000 cells by cell counting on a Cell-O-Meter. Immediately following the print, constructs were placed at 4° C. for 10 minutes. Cold media was then added to the outer well of the transwell in a volume of 3 ml. The media used for subsequent growth and maintenance of the skin tissue was a 50:50 ratio of HDFa: HEKn media. The initial volume added was sufficient to submerge the structure. All subsequent media changes used warmed media (37° C.) added to the outer well of the transwell and not to the inner basket. Media was changed 48 hours later and reduced to a volume of 1.5 ml per well to bring the structure to an air-liquid interface (ALI). Media and subsequently changed 48 hours after that (day 4) at a volume of 1.5 ml. On day 5, media was changed and further reduced to 1 ml per well and subsequently changed daily. On day 10, skin tissues were subject to a skin irritation test method using 1% TRITON X-100. 1% TRITON X-100 is a known irritant and reference chemical currently used in other 3D skin models. Methods were based on OECD guidelines 439 and 431 for applying human skin models to in vitro skin irritation or corrosion, respectively. On day 10, conditioned media was saved (designated time=0) and 1 ml of fresh media was added to the outer well of the transwell. The printed skin tissue was then treated with 20 μl of PBS as a negative control or with 20 μl of 1% TRITON X-100 as a positive control and known irritant. […] IL-1α production (R&D Systems) was analyzed in a colorimetric assays per manufacturer's protocol. Media was analyzed for lactate dehydrogenase as a marker for cytotoxicity. IL-1α production was assessed as a complementary endpoint to classic cytotoxicity testing to improve predictability of irritants. […] Viability was measured as fluorescence in the media by conversion of resazurin to resorufin. […]

[4] = tested on: bioprinted full thickness skin tissue; experiment: Histological analysis of bioprinted skin tissue after irritant treatment (H&E, CK5/IVL, CK10, collagen 3, PCNA, TUNEL); conditions: 1% TRITON X-100, 1 hour exposure
Text: Bio-ink was generated by a cellular mixture of 100% primary adult human dermal fibroblasts (HDFa) in 8% gelatin (NOVOGEL 2.0) at a concentration of 100 million cells per milliliter. The cell: gelatin ratio was altered to reduce the cellular density of the dermal sheet to better mimic dermal tissue in native skin. Three-dimensional bio-ink constructs were printed by continuous deposition using the NOVOGEN BIOPRINTER platform in a 4 mm×4 mm×0.5 mm base to create a dermal structure resembling a sheet. One tissue construct was printed per transwell in a 6-well plate. The transwell printing surface contained a polytetrafluoroethylene (PTFE) membrane coated with equimolar mixture of types I and III collagen (bovine) with pores 3 μm in size. Epidermal cell paste containing a mixture of 100% primary neonatal human epidermal keratinocytes (HEKn) was then printed on top of the dermal bio-ink. Cell paste was measured post print at 87.1% viable by trypan exclusion assay. Cell numbers in the deposited epidermal layer was estimated at 60,000 cells by cell counting on a Cell-O-Meter. Immediately following the print, constructs were placed at 4° C. for 10 minutes. Cold media was then added to the outer well of the transwell in a volume of 3 ml. The media used for subsequent growth and maintenance of the skin tissue was a 50:50 ratio of HDFa: HEKn media. The initial volume added was sufficient to submerge the structure. All subsequent media changes used warmed media (37° C.) added to the outer well of the transwell and not to the inner basket. Media was changed 48 hours later and reduced to a volume of 1.5 ml per well to bring the structure to an air-liquid interface (ALI). Media and subsequently changed 48 hours after that (day 4) at a volume of 1.5 ml. On day 5, media was changed and further reduced to 1 ml per well and subsequently changed daily. On day 10, skin tissues were subject to a skin irritation test method using 1% TRITON X-100. 1% TRITON X-100 is a known irritant and reference chemical currently used in other 3D skin models. Methods were based on OECD guidelines 439 and 431 for applying human skin models to in vitro skin irritation or corrosion, respectively. On day 10, conditioned media was saved (designated time=0) and 1 ml of fresh media was added to the outer well of the transwell. The printed skin tissue was then treated with 20 μl of PBS as a negative control or with 20 μl of 1% TRITON X-100 as a positive control and known irritant. Test substances were pipetted manually to the apical surface of the tissue. TRITON X-100 was diluted to a 1% aqueous solution in deionized water and sterile filtered through a 20 micron filter before use. Samples were incubated for 30 minutes at 37° C. followed by 30 minutes at room temperature for a total of 60 minutes. Media was saved (designated time=1 hour). Samples were then washed extensively by PBS rinsing. Transwells were then placed in a new 6-well plate with fresh media (1 ml) added to the outer well then placed back into 37° C. overnight. The media was then changed at 24 hours and at 48 hours post treatment. Total media collected included time points=−48, 0, 1, 24, and 48 hours. IL-1α production (R&D Systems) was analyzed in a colorimetric assays per manufacturer's protocol. Media was analyzed for lactate dehydrogenase as a marker for cytotoxicity. IL-1α production was assessed as a complementary endpoint to classic cytotoxicity testing to improve predictability of irritants. Keratinocytes normally produce and release inflammatory cytokine IL-1α in response to chemical or physical stress. At 48 hours post treatment (day 12), tissues were either lysed for RNA extraction and subsequent qPCR analysis, or tested for viability by alamar blue assay then rinsed in PBS and fixed with 2% PFA for histological analysis. Alamar blue (Life Technologies) was added per manufacturer's instructions to media and incubated with tissue constructs (1 ml) at 37° C. for 3 hours. […]

[5] = 1% TRITON X-100, 1 hour exposure, 48 hours post treatment

## TRITON X-100
[1]; 1% TRITON X-100, 1 hour exposure, 6-well format, at 1 hour, 24 hours and 48 hours post treatment
  induction in LDH activity compared to PBS control: roughly 2 fold
[1]; 15 minute exposure, 5% SDS or 1% TRITON X-100, 24 well plate format, 42 hours post exposure
  LDH activity higher than PBS: about 1.4 fold
[2]; 1% TRITON X-100, 1 hour exposure, 24 hours post treatment
  IL-1α levels: remained high
[2]; [5]
  IL-1α levels: returned to baseline
[2]; 1% TRITON X-100, 1 hour exposure, greatest difference 1 hour post treatment
  IL-1α activity in comparison to PBS control: increased
[2]; 15 minute exposure, 5% SDS or 1% TRITON X-100, 24 well plate format
  IL-1α production: induced
[3]; [5]
  reduction in viability as compared to the PBS control (alamar blue): 80%
[3]; 15 minute exposure, 5% SDS or 1% TRITON X-100, 24 well plate format, 42 hours post treatment
  viability compared to the PBS control (alamar blue assay): 68.75%
[4]
  irritancy to bioprinted skin suggested by histology: irritant
